Measured values reported in patent US20230279002A1, “Polymorphs of Crystalline Forms of 3,10-dimethoxy-5,8,13,13a-tetrahydro-6H-isoquinolino[3,2-a]isoquinolin-9-yl 3-fluorobenzenesulfonate and Salts Thereof” (CVI Pharmaceuticals Limited, priority 2020, published 2023).

Columns and labels:
Type in all cases: physicochemical
[1] = DVS (Dynamic Vapor Sorption) moisture sorption/desorption, hygroscopicity classification; settings: 25 °C; for Change In Mass (%) - ref, Desorption / Change In Mass (%) - ref, Sorption / Change In Mass (%) - ref, Hysteresis: Cycle 1
Method: DVS (Dynamic Vapor Sorption): Around 10-20 mg of samples were used to test its moisture sorption/desorption profiles at 25° C. under 0%˜95%˜0% relative humidity (RH) cycle using dm/dt: 0.01%/min equilibrium and a measurement step of 5% RH.
Hygroscopicity Classification: Typical %-moisture gain as a function of increased RH was determined by DVS. Samples went through a dynamic test isothermally at 25° C. The test was divided into 2 processes, one was absorption process, the other was desorption process. RH ranged from 0% to 95% with 5% RH for each step, and when dm/dt<=0.01%, it was assumed the water sorption/desorption equilibrium is reached.

[2] = Solid stability at 40° C./0% RH (closed) and 40° C./75% RH (open), HPLC; settings: for 0 day % remaining / 5 day % remaining / 10 day % remaining: solid
Method: Solid stability: 5 mg of 2a was weighed into scintillation vials sealed properly and stored at 40° C./0% RH(closed), 40° C./75% RH(open) under dark conditions to avoid the effect of light on stability. Samples were collected at day 0, 5 and 10 and analyzed by HPLC.
Solid stability: 5 mg of compound was weighed into vials sealed properly and stored at 40° C./0% RH (closed), 40° C./75% RH (open) under dark conditions to avoid the effect of light. Samples were analyzed by HPLC at days 0, 7, and 21.
Solid stability of compound 1a: 5 mg compound were accurately weighed into scintillation vials sealed properly and stored at 40° C./0% RH(closed), 40° C./75% RH(open) under dark condition to avoid the effect of light on stability. Samples should be collected at day 0, 5 and 10 days and analyzed by HPLC.

[3] = Solution stability in 0.1 N HCl, pH 4.5 buffer and pH 6.8 buffer at 25° C. and 37° C., HPLC; settings: summary of the Examples
Method: Solution stability: A stock solution of compound (1.0 mg/mL) in MeOH was diluted with 0.1 N HCl, pH 4.5 buffer (acetate) and pH 6.8 buffer to reach constant ionic strength of 0.15 M and the same final concentration (50 μg/mL, 40% MeOH).
A stock solution of 1b and 3b (1.0 mg/mL) in MeOH was diluted with pH 6.8 buffer to reach constant ionic strength of 0.15M and the same final concentration (25 μg/mL, 40% […]).
The solutions were stored at 25° C. and 37° C.

[4] = TGA (Thermal Gravimetric Analysis) weight loss; settings: for TGA weight loss (in words): room temperature to 120° C.
Method: TGA (Thermal Gravimetric Analysis): Samples of compounds (4˜6 mg) were weighed into the pan, and heated under nitrogen purge using a ramp rate of 20° C./min over the range of 30° C.˜350° C.

Q: Which results are given for `COc1ccc2c(c1)CCN1Cc3c(ccc(OC)c3OS(=O)(=O)c3cccc(F)c3)C[C@H]21` [Compound 2a]?
A: Hygroscopicity classification by DVS [1]: non-hygroscopic; Change In Mass (%) - ref, Desorption ([1]; Target RH 0.0 %): −0.00505%; Change In Mass (%) - ref, Sorption ([1]; Target RH 0.0 %): 0.00011%; Change In Mass (%) - ref, Desorption ([1]; Target RH 5.0 %): −0.0028%; Change In Mass (%) - ref, Hysteresis ([1]; Target RH 5.0 %): −0.00426%; Change In Mass (%) - ref, Sorption ([1]; Target RH 5.0 %): 0.00146%; Change In Mass (%) - ref, Desorption ([1]; Target RH 10.0 %): −0.00101%; Change In Mass (%) - ref, Hysteresis ([1]; Target RH 10.0 %): −0.0046%; Change In Mass (%) - ref, Sorption ([1]; Target RH 10.0 %): 0.00359%; Change In Mass (%) - ref, Desorption ([1]; Target RH 15.0 %): 0.00000%; Change In Mass (%) - ref, Hysteresis ([1]; Target RH 15.0 %): −0.00527%; Change In Mass (%) - ref, Sorption ([1]; Target RH 15.0 %): 0.00527%; Change In Mass (%) - ref, Desorption ([1]; Target RH 20.0 %): 0.00123%; Change In Mass (%) - ref, Hysteresis ([1]; Target RH 20.0 %): −0.0055%; Change In Mass (%) - ref, Sorption ([1]; Target RH 20.0 %): 0.00673%; Change In Mass (%) - ref, Desorption ([1]; Target RH 25.0 %): 0.00247%; Change In Mass (%) - ref, Hysteresis ([1]; Target RH 25.0 %): −0.00505%; Change In Mass (%) - ref, Sorption ([1]; Target RH 25.0 %): 0.00752%; Change In Mass (%) - ref, Desorption ([1]; Target RH 30.0 %): 0.00292%; Change In Mass (%) - ref, Hysteresis ([1]; Target RH 30.0 %): −0.00527%; Change In Mass (%) - ref, Sorption ([1]; Target RH 30.0 %): 0.00819%; Change In Mass (%) - ref, Desorption ([1]; Target RH 35.0 %): 0.00393%; Change In Mass (%) - ref, Hysteresis ([1]; Target RH 35.0 %): −0.00449%; Change In Mass (%) - ref, Sorption ([1]; Target RH 35.0 %): 0.00841%; Change In Mass (%) - ref, Desorption ([1]; Target RH 40.0 %): 0.0055%; Change In Mass (%) - ref, Hysteresis ([1]; Target RH 40.0 %): −0.00314%; Change In Mass (%) - ref, Sorption ([1]; Target RH 40.0 %): 0.00864%; Change In Mass (%) - ref, Desorption ([1]; Target RH 45.0 %): 0.00673%; Change In Mass (%) - ref, Hysteresis ([1]; Target RH 45.0 %): −0.00202%; Change In Mass (%) - ref, Sorption ([1]; Target RH 45.0 %): 0.00875%; Change In Mass (%) - ref, Desorption ([1]; Target RH 50.0 %): 0.00763%; Change In Mass (%) - ref, Hysteresis ([1]; Target RH 50.0 %): −0.00191%; Change In Mass (%) - ref, Sorption ([1]; Target RH 50.0 %): 0.00954%; Change In Mass (%) - ref, Desorption ([1]; Target RH 55.0 %): 0.00853%; Change In Mass (%) - ref, Hysteresis ([1]; Target RH 55.0 %): −0.00123%; Change In Mass (%) - ref, Sorption ([1]; Target RH 55.0 %): 0.00976%; Change In Mass (%) - ref, Desorption ([1]; Target RH 60.0 %): 0.00909%; Change In Mass (%) - ref, Hysteresis ([1]; Target RH 60.0 %): −0.0009%; Change In Mass (%) - ref, Sorption ([1]; Target RH 60.0 %): 0.00998%; Change In Mass (%) - ref, Desorption ([1]; Target RH 65.0 %): 0.00954%; Change In Mass (%) - ref, Hysteresis ([1]; Target RH 65.0 %): −0.00056%; Change In Mass (%) - ref, Sorption ([1]; Target RH 65.0 %): 0.0101%; Change In Mass (%) - ref, Desorption ([1]; Target RH 70.0 %): 0.01066%; Change In Mass (%) - ref, Hysteresis ([1]; Target RH 70.0 %): 0.00000%; Change In Mass (%) - ref, Sorption ([1]; Target RH 70.0 %): 0.01066%; Change In Mass (%) - ref, Desorption ([1]; Target RH 75.0 %): 0.01234%; Change In Mass (%) - ref, Hysteresis ([1]; Target RH 75.0 %): 0.00056%; Change In Mass (%) - ref, Sorption ([1]; Target RH 75.0 %): 0.01178%; Change In Mass (%) - ref, Desorption ([1]; Target RH 80.0 %): 0.01324%; Change In Mass (%) - ref, Hysteresis ([1]; Target RH 80.0 %): 0.00034%; Change In Mass (%) - ref, Sorption ([1]; Target RH 80.0 %): 0.0129%; Change In Mass (%) - ref, Desorption ([1]; Target RH 85.0 %): 0.01481%; Change In Mass (%) - ref, Hysteresis ([1]; Target RH 85.0 %): 0.0009%; Change In Mass (%) - ref, Sorption ([1]; Target RH 85.0 %): 0.01391%; Change In Mass (%) - ref, Desorption ([1]; Target RH 90.0 %): 0.01773%; Change In Mass (%) - ref, Hysteresis ([1]; Target RH 90.0 %): 0.00146%; Change In Mass (%) - ref, Sorption ([1]; Target RH 90.0 %): 0.01627%; Change In Mass (%) - ref, Desorption ([1]; Target RH 95.0 %): 0.02076%; Change In Mass (%) - ref, Sorption ([1]; Target RH 95.0 %): 0.02076%; moisture picked up (DVS) ([1]; at 95% RH): about 0.02%; Solid-state stability (HPLC) ([2]; 40° C./0% RH (closed) and 40° C./75% RH (open), dark, up to 10 days): substantially stable; 0 day % remaining ([2]; 40° C. (0% RH, closed)): 99.65%; 5 day % remaining ([2]; 40° C. (0% RH, closed)): 101.65%; 10 day % remaining ([2]; 40° C. (0% RH, closed)): 100.85%; 0 day % remaining ([2]; 40° C./75% RH (open)): 99.65%; 5 day % remaining ([2]; 40° C./75% RH (open)): 100.66%; 10 day % remaining ([2]; 40° C./75% RH (open)): 101.31%; Stability compared with other polymorphs (summary) [3]: most stable of the polymorphs; Temperature until which there is no weight loss ([4]; DSC and TGA): about 150 °C; TGA weight loss (in words) [4]: almost no weight loss; TGA weight loss (in words) ([4]; listed as Hydrochloride salt of compound 1a): almost no weight loss
